Measurements: the NIST ThermoML archive (doi:10.1016/j.tca.2006.04.016)
Numbers after ± are expanded uncertainties.

Conditions: 101.33 kPa, Liquid, Vibrating tube method

CN(C)CCCN [N,N-dimethyl-1,3-propanediamine]
Conditions | mass density [kg/m3]
278.15 K | 830.37 ± 0.44
278.65 K | 829.93 ± 0.44
279.15 K | 829.49 ± 0.44
279.65 K | 829.05 ± 0.44
280.15 K | 828.61 ± 0.44
280.65 K | 828.17 ± 0.44
281.15 K | 827.73 ± 0.44
281.65 K | 827.29 ± 0.44
282.15 K | 826.84 ± 0.44
282.65 K | 826.4 ± 0.44
283.15 K | 825.96 ± 0.44
283.65 K | 825.52 ± 0.44
284.15 K | 825.08 ± 0.44
284.65 K | 824.64 ± 0.44
285.15 K | 824.2 ± 0.44
285.65 K | 823.76 ± 0.44
286.15 K | 823.32 ± 0.44
286.65 K | 822.88 ± 0.44
287.15 K | 822.44 ± 0.44
287.65 K | 822 ± 0.44
288.15 K | 821.56 ± 0.44
288.65 K | 821.12 ± 0.44
289.15 K | 820.67 ± 0.44
289.65 K | 820.23 ± 0.44
290.15 K | 819.79 ± 0.44
290.65 K | 819.35 ± 0.44
291.15 K | 818.91 ± 0.44
291.65 K | 818.47 ± 0.44
292.15 K | 818.03 ± 0.44
292.65 K | 817.58 ± 0.44
293.15 K | 817.14 ± 0.44
293.65 K | 816.7 ± 0.44
294.15 K | 816.26 ± 0.44
294.65 K | 815.82 ± 0.44
295.15 K | 815.37 ± 0.44
295.65 K | 814.93 ± 0.43
296.15 K | 814.49 ± 0.43
296.65 K | 814.05 ± 0.43
297.15 K | 813.6 ± 0.43
297.65 K | 813.16 ± 0.43
298.15 K | 812.72 ± 0.43
298.65 K | 812.27 ± 0.43
299.15 K | 811.83 ± 0.43
299.65 K | 811.39 ± 0.43
300.15 K | 810.94 ± 0.43
300.65 K | 810.5 ± 0.43
301.15 K | 810.06 ± 0.43
301.65 K | 809.61 ± 0.43
302.15 K | 809.17 ± 0.43
302.65 K | 808.72 ± 0.43
303.15 K | 808.28 ± 0.43
303.65 K | 807.84 ± 0.43
304.15 K | 807.39 ± 0.43
304.65 K | 806.95 ± 0.43
305.15 K | 806.5 ± 0.43
305.65 K | 806.06 ± 0.43
306.15 K | 805.61 ± 0.43
306.65 K | 805.17 ± 0.43
307.15 K | 804.72 ± 0.43
307.65 K | 804.28 ± 0.43
308.15 K | 803.83 ± 0.43
308.65 K | 803.39 ± 0.43
309.15 K | 802.94 ± 0.43
309.65 K | 802.5 ± 0.43
310.15 K | 802.05 ± 0.43
310.65 K | 801.61 ± 0.43
311.15 K | 801.16 ± 0.43
311.65 K | 800.72 ± 0.43
312.15 K | 800.27 ± 0.43
312.65 K | 799.82 ± 0.43
313.15 K | 799.38 ± 0.43
313.65 K | 798.93 ± 0.43
314.15 K | 798.48 ± 0.43
314.65 K | 798.04 ± 0.43
315.15 K | 797.59 ± 0.43
315.65 K | 797.14 ± 0.43
316.15 K | 796.69 ± 0.43
316.65 K | 796.25 ± 0.43
317.15 K | 795.8 ± 0.43
317.65 K | 795.35 ± 0.43
318.15 K | 794.9 ± 0.43
318.65 K | 794.45 ± 0.43
319.15 K | 794.01 ± 0.43
319.65 K | 793.56 ± 0.43
320.15 K | 793.11 ± 0.43
320.65 K | 792.66 ± 0.43
321.15 K | 792.21 ± 0.43
321.65 K | 791.76 ± 0.43
322.15 K | 791.31 ± 0.43
322.65 K | 790.86 ± 0.43
323.15 K | 790.41 ± 0.43
323.65 K | 789.96 ± 0.43
324.15 K | 789.52 ± 0.43
324.65 K | 789.06 ± 0.43
325.15 K | 788.62 ± 0.43
325.65 K | 788.17 ± 0.43
326.15 K | 787.72 ± 0.43
326.65 K | 787.26 ± 0.43
327.15 K | 786.81 ± 0.43
327.65 K | 786.36 ± 0.43
328.15 K | 785.91 ± 0.43
328.65 K | 785.46 ± 0.43
329.15 K | 785.01 ± 0.43
329.65 K | 784.56 ± 0.43
330.15 K | 784.11 ± 0.43
330.65 K | 783.65 ± 0.43
331.15 K | 783.2 ± 0.43
331.65 K | 782.75 ± 0.43
332.15 K | 782.3 ± 0.43
332.65 K | 781.84 ± 0.43
333.15 K | 781.39 ± 0.43
333.65 K | 780.94 ± 0.43
334.15 K | 780.49 ± 0.43
334.65 K | 780.03 ± 0.43
335.15 K | 779.58 ± 0.43
335.65 K | 779.12 ± 0.43
336.15 K | 778.67 ± 0.42
336.65 K | 778.22 ± 0.42
337.15 K | 777.76 ± 0.42
337.65 K | 777.31 ± 0.42
338.15 K | 776.85 ± 0.42
338.65 K | 776.4 ± 0.42
339.15 K | 775.94 ± 0.42
339.65 K | 775.49 ± 0.42
340.15 K | 775.03 ± 0.42
340.65 K | 774.57 ± 0.42
341.15 K | 774.11 ± 0.42
341.65 K | 773.66 ± 0.42
342.15 K | 773.2 ± 0.42
342.65 K | 772.74 ± 0.42
343.15 K | 772.29 ± 0.42
343.65 K | 771.83 ± 0.42
344.15 K | 771.37 ± 0.42
344.65 K | 770.91 ± 0.42
345.15 K | 770.45 ± 0.42
345.65 K | 769.99 ± 0.42
346.15 K | 769.53 ± 0.42
346.65 K | 769.08 ± 0.42
347.15 K | 768.62 ± 0.42
347.65 K | 768.16 ± 0.42
348.15 K | 767.7 ± 0.42
348.65 K | 767.24 ± 0.42
349.15 K | 766.78 ± 0.42
349.65 K | 766.32 ± 0.42
350.15 K | 765.86 ± 0.42
350.65 K | 765.4 ± 0.42
351.15 K | 764.94 ± 0.42
351.65 K | 764.48 ± 0.42
352.15 K | 764.02 ± 0.42
352.65 K | 763.56 ± 0.42
353.15 K | 763.1 ± 0.42
353.65 K | 762.64 ± 0.42
354.15 K | 762.17 ± 0.42
354.65 K | 761.71 ± 0.42
355.15 K | 761.25 ± 0.42
355.65 K | 760.79 ± 0.42
356.15 K | 760.33 ± 0.42
356.65 K | 759.86 ± 0.42
357.15 K | 759.4 ± 0.42
357.65 K | 758.94 ± 0.42
358.15 K | 758.48 ± 0.42
358.65 K | 758.01 ± 0.42
359.15 K | 757.55 ± 0.42
359.65 K | 757.08 ± 0.42
360.15 K | 756.62 ± 0.42
360.65 K | 756.15 ± 0.42
361.15 K | 755.69 ± 0.42
361.65 K | 755.22 ± 0.42
362.15 K | 754.75 ± 0.42
362.65 K | 754.28 ± 0.42
363.15 K | 753.82 ± 0.42
